Marks after values point to notes of the source that are not given here.
What was measured:
[1] = system: sucrose challenged Streptozotocin induced diabetic rats; test: STZ-s model, sucrose challenged low dosed Streptozotocin induced diabetic rats; assay type: in vivo, Male albino rats of Sprague Dawley strain; details: for STZ-s model % change 5 h / STZ-s model % change 24 h: dose 25 mg/kg
Description: [formula] […] [B] (ii) STZ-s Procedure
Male albino rats of Sprague Dawley strain of the body weight 160±20 g were selected for this study. Streptozotocin (Sigma, USA) was dissolved in 100 mM citrate buffer pH 4.5 and calculated amount of the fresh solution was injected to overnight fasted rats (45 mg./Kg.) intraperitonially. Blood was checked 48 hours later by glucosetrips and animals showing blood glucose values between 144 to 270 mg./dl. (8 to 15 mM) were included in the experiments and termed diabetic. The diabetic animals were divided into groups comprising 5 to 6 animals in each group. […] The animals of the control group were given an equal amount of 1.0% gum acacia. A sucrose load of the 2.5 g/Kg of the body weight was given after 30 minutes of the drug administration. After 30 minutes of the post sucrose load blood glucose level was again checked by glucostrips at 30, 60, 90, 120, 180, 240, 300 minutes and 24 hours respectively. […] The food but not the water was withheld from the cages during the experimentation. Comparing the AUC of experimental and control groups determined the percent of antihyperglycemic activity. Statistical comparison between groups was made by the Student's “t” test.

[2] = system: dislipidemic hamster; test: Antidyslipidemic activity in dislipidemic (high fat diet) hamster model;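 also: male golden Syrian hamsters on high fat diet for 10 days, oral treatment days 4–10, non-fasted plasma sampled on day 10, compared with vehicle-treated high fat diet controls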
Description: Test Models used for the Evaluation of the Antidyslipidemic Activity:
Male golden Syrian Hamsters weighing 120-130 g were divided into dyslipidemic and dislipidemic plus drug treated groups of the eight animals in each groups were used. Feeding with high fat diet (supplied by NOVO—NORDISK, Dennmark, Cat produced Dyslipidemia. No-99122211). Dislipidemic hamsters had free access to HFD and water ad-libitum. throughout the experiment for ten days. The test sample was fed orally at a dose of 250 mg./kg. from day-4 to day-10 (7 days) in the HFD hamsters. Normal hamsters fed with HFD and given drug vehicle only, served as control animals. Body weight of each animal and diet intake of each animal group was recorded daily to check the effect of the drug on food intake and body weight of the animals. At the end of the experiment i.e. on day 10th, the blood of non fasted animals were withdrawn in two sets of tubes in which one set contains 120 μl NaF (4.5 mg./ml) and after 15 min. in cold, plasma was separated. Biochemical analysis of plasma with out NaF was performed on the same day for Triglycerides (TG) total Cholesterol (TC) HDL-Cholesterol using enzymatic diagnostic kits. Similarly the plasma containing NaF Glucose was assayed for glucose, glycerol and free Fatty acids (FFA) on Synchron CX-5. Clinical System Beckmann Coulter Instrument.

[3] = system: STZ injected rats; test: STZ model, antihyperglycemic activity; assay type: in vivo, Sprague-Dauley [SD] strain male albino rats; details: dose 100 mg/kg
Description: Drug metformate was administered half an hour before glucose was given. […] Statistical significance was done by AUC-method. [B] (i) STZ-Model Procedure Sprague-Dauley [SD] strain male albino rats of body weight 160±20 g were taken for study. Animals in 3 cage were kept for 7 days under standard experimental conditions before the experiment. Animals were given standard rat-pellet diet and tap-water ad-libitum. Day ‘0’-Day before experiment, animals were kept for overnight starvation. […] USA] was injected intraperitoneally to all the starved animals at a dose of 60 mg/kg, dissolved in 100 m M citrate buffer, pH 4.5. Day ‘2’ rats remained as such in the same conditions. Food pellets were removed on the penultimate day at 5:00 P.M. in the evening and animals were kept on over night starvation. […] Blood was taken from tail of the rats by stab-techniques and the glucose level was estimated using “Advantage Glucometer” of Boehringer Mannheim Co, USA. […] Group-I was kept only for control [STZ-injection were given only]. Group II were treated with STZ+test samples. […] [formula] The extract/fraction/compounds found active were statistically analyzed to determine area under curve [AUC] by plotting the blood-glucose values against time. [B] (ii) STZ-s Procedure

[4] = system: db/db mice; test: Anti-dislipidemic activity (lipid profile) in db/db mice; assay type: in vivo, C57BL/KsBom-db mice; details: dose 10 mg/Kg
Source text: The db/db mouse is a well-characterized model of type-2 diabetes. The background for the db/db mouse is the C57BL/Ks strain. The major deficiency of the C57BL.Ks Bom-db mouse (db/db) is lack of a functional leptin receptor. This leads to defective leptin signaling and a complete lack of feedback from leptin. […] The db/db mouse develops NIDDM from around week 10. The disease is stable until week 20, where destruction of pancreatic β-cells can be recognized clinically as decreasing levels of plasma insulin and very severe […]. The db/db mouse has a maximal life span of 9-12 months. The advantage of using male mice for experimental purposes is that the fluctuations in plasma parameters are less than in females where the oestrogens cycle affects the clinical diabetes. The optimal age of db/db mice used for experiments will be from week-12 to 18 when they have developed NIDDM with diabetic dyslipidemia but still have functional β-cells in the pancreas. C57BL/KsBom-db mice 12-18 weeks, 40-50 g bred in the animal house of CDRI, Lucknow. 10 mice were housed in groups of (5 males and 5 females) were housed in groups of 5 individuals (same sex) in a room controlled for temperature (23±2.0° C.) and 12/12 hours light/dark cycle (light on 6.00AM.). Body weight was measured daily from day 1 to day 10. All animals had free access to fresh water and to normal chow except on the days of the post prandial protocol day 6 and during the overnight fast before the OGTT on day 10. The animals always had access to water during experimental periods. Blood glucose was checked every morning up till day 5. On day 6 post prandial protocol was employed, in this method blood glucose was checked at −0.5 h and 0 h. […] Blood glucose was measured at 0.0 min. post treatment, at this juncture glucose solution was given at a dose of 3 g./Kg. to all the groups including vehicle; the profile of blood glucose was checked at 30, 60, 90 and 120 minutes post glucose administration.

[5] = system: db/db mice; test: db/db mice antihyperglycemic activity (day 6 post prandial, day 10 OGTT); assay type: in vivo, C57BL/KsBom-db mice
Source text: The db/db mouse is a well-characterized model of type-2 diabetes. The background for the db/db mouse is the C57BL/Ks strain. The major deficiency of the C57BL.Ks Bom-db mouse (db/db) is lack of a functional leptin receptor. This leads to defective leptin signaling and a complete lack of feedback from leptin. […] The db/db mouse develops NIDDM from around week 10. The disease is stable until week 20, where destruction of pancreatic β-cells can be recognized clinically as decreasing levels of plasma insulin and very severe […]. The db/db mouse has a maximal life span of 9-12 months. The advantage of using male mice for experimental purposes is that the fluctuations in plasma parameters are less than in females where the oestrogens cycle affects the clinical diabetes. The optimal age of db/db mice used for experiments will be from week-12 to 18 when they have developed NIDDM with diabetic dyslipidemia but still have functional β-cells in the pancreas. C57BL/KsBom-db mice 12-18 weeks, 40-50 g bred in the animal house of CDRI, Lucknow. 10 mice were housed in groups of (5 males and 5 females) were housed in groups of 5 individuals (same sex) in a room controlled for temperature (23±2.0° C.) and 12/12 hours light/dark cycle (light on 6.00AM.). Body weight was measured daily from day 1 to day 10. All animals had free access to fresh water and to normal chow except on the days of the post prandial protocol day 6 and during the overnight fast before the OGTT on day 10. The animals always had access to water during experimental periods. Blood glucose was checked every morning up till day 5. On day 6 post prandial protocol was employed, in this method blood glucose was checked at −0.5 h and 0 h. The test samples were given to the treatment group whereas vehicle received the only gum acacia (1.0%); the blood glucose was again checked at 1, 2, 3, 4 and 6 h posttest drug treatment. On day 8, blood was collected for serum insulin and lipid profile measurements and finally on day 10 an oral glucose tolerance test (OGTT) was performed after an overnight fasting. Blood glucose was measured at 0.0 min. post treatment, at this juncture glucose solution was given at a dose of 3 g./Kg. to all the groups including vehicle; the profile of blood glucose was checked at 30, 60, 90 and 120 minutes post glucose administration.
Table-5-a represents the antihyperglycemic activity profile of 50% Aq.-EtOH extract and chloroform soluble fraction of the aq.-ethanolic extract and the standard drug Roziglitazone in hyperglycemic and hyperinsulinemic db/db mice. The results of the antidiabetic evaluations of the epicarp extracts/fractions/compounds in GLM and STZ models are given in table-1

Compound: CC[C@H](CC[C@@H](C)[C@H]1CC[C@H]2[C@@H]3CC=C4C[C@@H](O[C@@H]5O[C@H](CO)[C@@H](O)[C@H](O)[C@H]5O)CC[C@]4(C)[C@H]3CC[C@]12C)C(C)C [β-Sitosterol-β-D-glucoside]
- % Activity in STZ-s model ([1]; dose 100 mg/Kg): +10.1%

Compound: CC[C@H](CC[C@@H](C)[C@H]1CC[C@H]2[C@@H]3CC=C4C[C@@H](O)CC[C@]4(C)[C@H]3CC[C@]12C)C(C)C [β-Sitosterol]
- STZ-s model % change 5 h ([1]; 5 h): Nil
- STZ-s model % change 24 h ([1]; 24 h): Nil
- FFA (Free Fatty Acid) ([2]; dose 25 mg/kg): −38*** %
- GLY (Glycerol) ([2]; dose 25 mg/kg): −14%
- H/C (High density lipoprotein/cholesterol ratio) ([2]; dose 25 mg/kg): −7%
- HDL (High Density Lipoprotein) ([2]; dose 25 mg/kg): −5%
- TG (Triglycerides) ([2]; dose 25 mg/kg): −7%

Compound: Xyloccensin-E
- STZ-s model % change 5 h ([1]; 5 h): −6.91%
- STZ-s model % change 24 h ([1]; 24 h): −0.34%
- CHOL (Cholesterol) ([2]; dose 10 mg/kg): −18%
- FFA (Free Fatty Acid) ([2]; dose 10 mg/kg): −43* %
- H/C (High density lipoprotein/cholesterol ratio) ([2]; dose 10 mg/kg): −10%
- HDL (High Density Lipoprotein) ([2]; dose 10 mg/kg): −25%
- TG (Triglycerides) ([2]; dose 10 mg/kg): −22%

Compound: CCCCCCCCCCCCCCCC(=O)O [Palmitic acid]
- % Activity in STZ-s model ([1]; dose 100 mg/Kg): −5.6%

Compound: CC(C)OC(=O)C(C)(C)Oc1ccc(C(=O)c2ccc(Cl)cc2)cc1 [Fenofibrate, reference compound]
- CHOL (Cholesterol) ([2]; dose 108.24 mg/kg (300 μmole)): −18* %
- FFA (Free Fatty Acid) ([2]; dose 108.24 mg/kg (300 μmole)): −20* %
- GLU (Glucose) ([2]; dose 108.24 mg/kg (300 μmole)): −22%
- GLY (Glycerol) ([2]; dose 108.24 mg/kg (300 μmole)): −36** %
- H/C (High density lipoprotein/cholesterol ratio) ([2]; dose 108.24 mg/kg (300 μmole)): +10%
- TG (Triglycerides) ([2]; dose 108.24 mg/kg (300 μmole)): −42* %

Compound: Xyloccensin-I
- STZ-s model % change 5 h ([1]; 5 h): Nil
- STZ-s model % change 24 h ([1]; 24 h): Nil
- FFA (Free Fatty Acid) ([2]; dose 25 mg/kg): −17%
- GLY (Glycerol) ([2]; dose 25 mg/kg): −5%
- H/C (High density lipoprotein/cholesterol ratio) ([2]; dose 25 mg/kg): −7%
- HDL (High Density Lipoprotein) ([2]; dose 25 mg/kg): −5%

Compound: CC(=O)O[C@@H]1C[C@H]2C(C)(C)C(=O)C=C[C@]2(C)[C@H]2CC[C@@]3(C)[C@H](c4ccoc4)OC(=O)[C@H]4O[C@]43[C@@]21C [Gedunin]
- activity in STZ-s model ([1]; rat, in vivo): active
- In STZ model % lowering [3]: 10.5%
- In STZ model % lowering ([3]; listed as gedunin): promising activity
- CHOL (Cholesterol) ([2]; dose 25 mg/kg): +14%
- FFA (Free Fatty Acid) ([2]; dose 25 mg/kg): −36*** %
- GLU (Glucose) ([2]; dose 25 mg/kg): −28*** %
- GLY (Glycerol) ([2]; dose 25 mg/kg): −22%
- H/C (High density lipoprotein/cholesterol ratio) ([2]; dose 25 mg/kg): +11%
- HDL (High Density Lipoprotein) ([2]; dose 25 mg/kg): +27* %
- TG (Triglycerides) ([2]; dose 25 mg/kg): −47*** %
- activity in antidislipidemic hamster model ([2]; hamster, in vivo): active

Compound: Photogedunin
- % Activity in STZ-s model ([1]; dose 100 mg/Kg): +30.5%

Compound: CN(C)C(=N)N=C(N)N [Metformin, reference compound]
- STZ-s model % change 5 h ([1]; 5 h): −23.6** %
- STZ-s model % change 24 h ([1]; 24 h): −26.5** %
- % Antihyperglycemic activity 5 h ([1]; dose 100 mg/Kg, 5 h): 23.6* ** %
- % Antihyperglycemic activity 24 h ([1]; dose 100 mg/Kg, 24 h): 26.5* * * %

Compound: CN(CCOc1ccc(CC2SC(=O)NC2=O)cc1)c1ccccn1 (stereo not shown) [Roziglitazone]
- Anti-dislipidemic activity CHOL [4]: −5.5
- Anti-dislipidemic activity HDL-C [4]: +7.14
- Anti-dislipidemic activity TG [4]: −16.0
- antidiabetic effect in db/db mice ([5]; 10 mg/Kg): same order of activities
- % Antihyperglycemic activity Day 6 ([5]; dose 3.0 mg/Kg, Day 6): 6.24* %
- % Antihyperglycemic activity Day 10 ([5]; dose 3.0 mg/Kg, Day 10): 48.5* ** %
- Antihyperglycemic activity Day 6 ([5]; dose 10 mg/Kg, Day 6): −13.8 **
- Antihyperglycemic activity Day 10 ([5]; dose 10 mg/Kg, Day 10): −27.4 ***

Source: US7959954B2, “Pharmaceutical composition for treatment of diabetes and dyslipidemia” (Council of Scientific and Industrial Research, priority 2005, dated 2011)
